We go through 3 compounds from PMC9837035 (Nature Communications, 2023).

The target of experiment [1] is T1, G9a SET domain (Homo sapiens, UniProt Q96KQ7).
T1 construct: the human G9a SET domain (residues 913–1193) was synthesized using the E. coli cell-free synthesis method; made in house; host or cells: E. coli cell-free synthesis
T1 sequence (Q96KQ7 913-1193): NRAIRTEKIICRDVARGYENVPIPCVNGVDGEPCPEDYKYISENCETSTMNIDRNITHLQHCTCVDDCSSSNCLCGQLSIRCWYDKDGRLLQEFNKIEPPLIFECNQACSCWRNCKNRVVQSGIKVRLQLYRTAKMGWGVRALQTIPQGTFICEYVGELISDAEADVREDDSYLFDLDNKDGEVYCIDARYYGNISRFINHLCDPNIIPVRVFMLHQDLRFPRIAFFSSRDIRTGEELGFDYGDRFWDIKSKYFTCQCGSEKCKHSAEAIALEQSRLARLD
Kind of experiment: Surface plasmon resonance (SPR). It is filed as binding. As for the experimental part: For crystal structure analysis, the human G9a SET domain (residues 913–1193) was synthesized using the E. coli cell-free synthesis method[48],[49] and purified in the same manner as described previously, except that the final size-exclusion column chromatography using HiLoad Superdex 200 16/60 (GE Healthcare) was equilibrated with 20 mM Tris-HCl buffer (pH 8.0) containing 400 mM NaCl. […] Crystals were grown by the hanging drop method at 293 K, where the sample solution was mixed with an equal volume of a reservoir solution containing 100 mM Bis-Tris propane (pH 7.4), 200 mM sodium formate, 10% ethylene glycol, and 25% PEG 3350. The harvested crystals were coated with Paratone-N oil (Hampton Research) before being flash-cooled in liquid nitrogen. Diffraction data were collected at the X06DA beamline of the Swiss Light Source, Paul Scherrer Institut (Villigen, Switzerland), and were processed and scaled with XDS[51], AIMLESS[52], and other CCP4 programs. The structure of G9a with UNC0638 (PDB ID: 3RJW)[23] was used for the initial phase determination by the molecular replacement method with Phaser[53]. The topology and parameter file for the inhibitor was generated with eLBOW[54] from SMILES strings. Structure refinement was carried out with Phenix[55] and manual model building using COOT[56]. Crystallographic statistics are summarized in Supplementary Table 3.
SPR was performed using a Biacore T200 (Cytiva) and Series S Sensorchip SA (Cytiva, BR100531) at the temperature of 25 °C. A solution of PBS, 0.005% TWEEN20 (Sigma, P9416), 0.5 mM TCEP (Nacalai Tesque, 06342-21), and 2% DMSO (Sigma, 276855) was filtered with a 0.22-μm filter and used as the running buffer. Kinetic measurements were carried out at a flow rate of 30 μL/min, and the association and dissociation phases were monitored for 120 s and 120–300 s, respectively. The G9a SET domain was biotinylated by using NHS-PEG4-Biotin (Thermo, 39259), and captured to flow cells 2, 3, and 4 with immobilization levels of ~2300 RU. No specific treatment was applied to the reference surface (flow cell 1). To prevent oxidation of the immobilized protein, a solution containing 1 μM ZnCl2 and 5 mM TCEP was injected at a flow rate of 10 μL/min for 60 s before each set of kinetic measurements. The extra wash command was executed after each measurement cycle with 50% DMSO aqueous solution. To correct for bulk responses, solvent correction was performed once after all kinetics runs by using running buffer containing 1–3% DMSO. The sensorgrams obtained from the three flow cells were analyzed individually by Biacore T200 Evaluation Software (Cytiva). The dissociation constant (KD) and binding kinetic parameters were calculated by a curve fit to a built-in 1:1 binding model.
On the technique in general: SPR reads the build-up and loss of mass on a sensor chip optically.

In experiment [2] the target is T2, GLP (Homo sapiens, UniProt Q9H9B1).
T2 sequence (Q9H9B1 1-1298): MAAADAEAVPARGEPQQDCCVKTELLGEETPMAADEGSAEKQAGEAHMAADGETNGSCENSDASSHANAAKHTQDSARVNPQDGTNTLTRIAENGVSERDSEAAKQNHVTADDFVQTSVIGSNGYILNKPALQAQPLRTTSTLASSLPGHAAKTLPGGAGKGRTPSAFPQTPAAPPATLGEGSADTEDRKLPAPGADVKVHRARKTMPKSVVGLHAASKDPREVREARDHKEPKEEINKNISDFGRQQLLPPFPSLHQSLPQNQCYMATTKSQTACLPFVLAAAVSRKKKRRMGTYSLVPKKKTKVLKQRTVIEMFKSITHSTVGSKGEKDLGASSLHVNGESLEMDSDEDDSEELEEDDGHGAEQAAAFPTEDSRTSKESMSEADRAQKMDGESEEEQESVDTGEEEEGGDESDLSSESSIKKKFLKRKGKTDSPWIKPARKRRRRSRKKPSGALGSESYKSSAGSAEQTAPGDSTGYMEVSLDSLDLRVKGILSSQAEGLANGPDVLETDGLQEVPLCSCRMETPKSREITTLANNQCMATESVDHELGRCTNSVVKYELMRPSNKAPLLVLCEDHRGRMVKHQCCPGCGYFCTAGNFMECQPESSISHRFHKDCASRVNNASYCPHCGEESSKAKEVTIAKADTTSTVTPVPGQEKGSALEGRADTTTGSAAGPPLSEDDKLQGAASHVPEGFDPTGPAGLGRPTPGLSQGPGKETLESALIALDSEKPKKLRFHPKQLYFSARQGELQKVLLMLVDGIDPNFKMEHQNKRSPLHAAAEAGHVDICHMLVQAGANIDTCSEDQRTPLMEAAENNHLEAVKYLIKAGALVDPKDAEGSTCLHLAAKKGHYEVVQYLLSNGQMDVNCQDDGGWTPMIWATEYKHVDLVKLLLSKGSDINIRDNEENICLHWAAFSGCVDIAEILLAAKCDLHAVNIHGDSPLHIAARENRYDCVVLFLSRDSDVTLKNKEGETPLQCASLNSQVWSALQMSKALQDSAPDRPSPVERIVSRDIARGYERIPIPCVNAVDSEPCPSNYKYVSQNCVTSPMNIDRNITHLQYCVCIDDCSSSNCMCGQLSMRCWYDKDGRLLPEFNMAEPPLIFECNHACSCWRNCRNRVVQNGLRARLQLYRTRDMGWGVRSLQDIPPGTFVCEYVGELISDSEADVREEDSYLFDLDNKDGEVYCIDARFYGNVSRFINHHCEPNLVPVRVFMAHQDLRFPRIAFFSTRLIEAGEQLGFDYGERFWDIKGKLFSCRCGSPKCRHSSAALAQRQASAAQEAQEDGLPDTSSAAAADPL
Briefly: biochemical.

Experiment [3] has as its target DNMT3b (Homo sapiens, UniProt Q9UBC3). Kind of experiment: biochemical.
For experiment [4], the target named is T3, SETD2 (Homo sapiens, UniProt Q9BYW2).
T3 construct: purchased Reaction Biology
T3 sequence (Q9BYW2 whole entry): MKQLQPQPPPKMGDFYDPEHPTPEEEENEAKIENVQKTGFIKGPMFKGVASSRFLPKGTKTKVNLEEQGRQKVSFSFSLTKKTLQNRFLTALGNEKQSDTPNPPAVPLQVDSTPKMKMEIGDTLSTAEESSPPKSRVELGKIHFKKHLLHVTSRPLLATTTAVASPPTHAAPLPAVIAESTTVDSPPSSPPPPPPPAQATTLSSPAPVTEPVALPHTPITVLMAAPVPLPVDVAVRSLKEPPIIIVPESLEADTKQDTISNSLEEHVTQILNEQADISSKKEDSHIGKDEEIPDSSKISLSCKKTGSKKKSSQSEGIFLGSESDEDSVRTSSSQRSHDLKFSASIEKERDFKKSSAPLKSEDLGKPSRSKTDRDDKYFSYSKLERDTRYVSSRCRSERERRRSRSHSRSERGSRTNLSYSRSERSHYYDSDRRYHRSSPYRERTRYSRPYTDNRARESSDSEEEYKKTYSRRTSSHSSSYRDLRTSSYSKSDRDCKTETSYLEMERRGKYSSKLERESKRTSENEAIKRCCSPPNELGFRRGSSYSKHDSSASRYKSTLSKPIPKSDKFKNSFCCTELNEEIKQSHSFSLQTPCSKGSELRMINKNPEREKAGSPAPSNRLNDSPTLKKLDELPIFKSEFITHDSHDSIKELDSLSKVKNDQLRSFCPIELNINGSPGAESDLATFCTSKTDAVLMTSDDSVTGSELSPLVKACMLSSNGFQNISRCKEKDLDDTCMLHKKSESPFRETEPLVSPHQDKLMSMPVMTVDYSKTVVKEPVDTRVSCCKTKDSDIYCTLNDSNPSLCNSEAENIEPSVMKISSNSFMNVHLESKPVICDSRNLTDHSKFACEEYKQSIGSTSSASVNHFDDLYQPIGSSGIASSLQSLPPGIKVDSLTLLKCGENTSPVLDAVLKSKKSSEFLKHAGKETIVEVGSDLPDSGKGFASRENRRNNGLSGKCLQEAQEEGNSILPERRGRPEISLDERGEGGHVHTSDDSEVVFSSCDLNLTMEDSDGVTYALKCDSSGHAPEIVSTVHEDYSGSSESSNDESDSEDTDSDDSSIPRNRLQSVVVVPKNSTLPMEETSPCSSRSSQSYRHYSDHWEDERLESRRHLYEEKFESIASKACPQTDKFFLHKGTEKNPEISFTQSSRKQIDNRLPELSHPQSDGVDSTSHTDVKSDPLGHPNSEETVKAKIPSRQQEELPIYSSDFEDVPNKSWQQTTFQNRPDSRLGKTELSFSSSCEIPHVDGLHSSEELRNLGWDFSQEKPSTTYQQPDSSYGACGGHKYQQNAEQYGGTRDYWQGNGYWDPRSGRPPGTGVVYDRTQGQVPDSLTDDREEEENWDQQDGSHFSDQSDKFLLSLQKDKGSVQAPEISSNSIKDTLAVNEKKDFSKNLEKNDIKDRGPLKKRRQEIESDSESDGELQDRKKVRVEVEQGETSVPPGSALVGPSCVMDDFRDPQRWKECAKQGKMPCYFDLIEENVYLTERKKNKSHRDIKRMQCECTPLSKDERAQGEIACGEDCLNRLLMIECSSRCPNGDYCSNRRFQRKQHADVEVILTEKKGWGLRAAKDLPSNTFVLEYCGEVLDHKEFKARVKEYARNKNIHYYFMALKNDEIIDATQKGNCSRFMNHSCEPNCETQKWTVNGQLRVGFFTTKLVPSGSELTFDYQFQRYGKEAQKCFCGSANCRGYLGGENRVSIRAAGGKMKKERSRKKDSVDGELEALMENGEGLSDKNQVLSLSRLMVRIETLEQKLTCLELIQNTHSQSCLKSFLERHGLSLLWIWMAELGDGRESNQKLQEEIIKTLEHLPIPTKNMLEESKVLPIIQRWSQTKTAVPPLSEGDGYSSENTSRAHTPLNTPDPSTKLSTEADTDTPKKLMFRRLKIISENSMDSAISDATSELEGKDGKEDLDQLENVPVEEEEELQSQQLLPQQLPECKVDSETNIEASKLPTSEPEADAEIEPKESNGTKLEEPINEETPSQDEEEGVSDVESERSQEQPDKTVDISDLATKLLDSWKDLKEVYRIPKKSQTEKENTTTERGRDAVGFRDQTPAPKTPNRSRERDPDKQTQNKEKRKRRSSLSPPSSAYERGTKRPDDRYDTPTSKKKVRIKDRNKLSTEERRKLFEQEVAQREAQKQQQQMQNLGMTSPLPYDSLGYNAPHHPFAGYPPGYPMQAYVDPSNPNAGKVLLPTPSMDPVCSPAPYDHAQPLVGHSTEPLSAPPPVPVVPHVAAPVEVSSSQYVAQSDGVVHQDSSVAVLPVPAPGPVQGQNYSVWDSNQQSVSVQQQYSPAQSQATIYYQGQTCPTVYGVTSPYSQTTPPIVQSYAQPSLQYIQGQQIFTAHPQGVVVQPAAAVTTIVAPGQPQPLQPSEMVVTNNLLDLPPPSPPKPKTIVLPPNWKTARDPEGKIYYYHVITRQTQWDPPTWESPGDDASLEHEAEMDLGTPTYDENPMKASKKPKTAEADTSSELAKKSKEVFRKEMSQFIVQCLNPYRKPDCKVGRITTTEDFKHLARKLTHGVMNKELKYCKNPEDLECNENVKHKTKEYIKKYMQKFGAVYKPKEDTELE
Briefly: Radioisotope-based methyltransferase assay (selectivity). It is filed as biochemical.

Experiment [5] concerns the target T4, SET1b (Homo sapiens, UniProt Q9UPS6).
T4 construct: purchased Reaction Biology
The experiment is described as above. It is filed as biochemical.

Where [6] appears, read: single run, read-out: Dissociation constant (Kd).

For orientation: Kd means the concentration at which binding is half-saturated. As a reminder, the IC50 is the midpoint of a concentration-inhibition curve.

Each structure is given as a SMILES string. Values joined by “and” are separate entries in the source; they are usually repeats but may differ in a detail not shown here. Equal entries are not always repeated. Where two headings read alike, the source gives them in different places.

As to `Cc1c(C(=O)NC(CCC2CC2)C(=O)Nc2ccc(C#N)cc2)[nH]c2c1C(=O)CC(C)(C)C2` (stereo not shown) [RK-701], the “binding to G9a by SPR” value in experiment [1] is on record as “reversible binding”. Moreover, the dissociation constant (Kd) in experiment [1] (absence of SAM, read-out: Kd) was 0.75 µM; in experiment [1] (earlier SPR conditions, peer review file, read-out: Kd before re-analysis) it was 2.4 µM; in experiment [1] (setting [6]) it was 0.743 µM and 0.731 µM and 0.761 µM. Besides, the half-inhibitory concentration (IC50) was 0.0486 µM and 0.0577 µM in experiment [2]; more than 100 µM in experiment [3]; more than 100 µM in experiment [4] (SETD2, 1 μM SAM); more than 100 µM in experiment [4] (SETD2, RK-701 in duplicate); 48.6 µM in experiment [5] (1 μM SAM); 47.6 µM and 49.6 µM in experiment [5] (RK-701 in duplicate).
In the case of `Cc1c(C(=O)N[C@H](CCC2CC2)C(=O)Nc2ccc(C#N)cc2)[nH]c2c1C(=O)CC(C)(C)C2` [RK-0133114], the “binding to G9a by SPR” value in experiment [1] is “failed to detect the binding”. For the same compound, the Kd in experiment [1] (mean of three kinetics runs, read-out: KD) is more than 20 µM; in experiment [1] (setting [6]), more than 20 µM.
For `Nc1ncnc2c1ncn2[C@@H]1O[C@H](CSCC[C@H](N)C(=O)O)[C@@H](O)[C@H]1O` [SAH, S-(5'-Adenosyl)-L-homocysteine, reference compound], the half-inhibitory concentration (IC50) in experiment [2] came out at 3.86 µM; in experiment [3], 0.112 µM; in experiment [4] (SETD2, 1 μM SAM) it was 5.3 µM; in experiment [4] (SETD2, RK-701 in duplicate), 5.31 µM; in experiment [5] (1 μM SAM), 5.3 µM; in experiment [5] (RK-701 in duplicate) it was 5.3 µM.
